Consider seven compounds from US20150291598A1 (NOVARTIS AG, priority 2012, published 2015).

Where two headings read alike, the source gives them in different places.

For assay [1], the system named is P. falciparum (NF54 or 3D7 strain). Briefly: Assay for P. falciparum proliferation in infected human blood cells (SYBR Green). The note with it: Plasmodium falciparum, Erythrocyte. Format: cell-based, Plasmodium falciparum. The method, boiled down: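 Infected erythrocytes (NF54 or 3D7; final 2.5% hematocrit, 0.3% parasitemia) were incubated with compounds for 72 h at 37 °C in low oxygen (3% O2, 4% CO2, 93% N2).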

The next assay concerns P. yoelii Sporozoite. Briefly: P. yoelii sporozoite invasion assay in HepG2-A16-CD81EGFP liver cells (immunofluorescence quantification of EEFs). Format: cell-based. The note with it: Plasmodium yoelii. The text has this: Compounds of the invention can be assayed to measure their capacity to inhibit proliferation of parasites in liver cells. The proliferation is quantified by determine the number of infected cells by immunofluorescence.
Due to the difficulty of successfully infecting immortalized human liver cell lines with the human malaria sporozoites (liver-stage parasite), rodent malaria sporozoites from Plasmodium yoelii (17XNL) and P. berghei (ANKA) are the preferred surrogate. Sporozoites are obtained from Anopheles stephensi mosquitoes supplied by the New York University Insectary, which ships the malaria-infected mosquitoes 10-13 days following the ingestion of an infective blood meal.
A transgenic HepG2 cell line expressing the tetraspanin CD81 receptor (HepG2-A16-CD81^EGFP) is used to increase the infectivity rate of rodent-malaria sporozoites into human cells. HepG2-A16-CD81^EGFP cells are stably transformed to express a GFP-CD81 fusion protein. A continuous in vitro culture of this line was maintained at 37° C. in 4% CO2 in complete media (CM) which contains: DMEM (Invitrogen, Carlsbad, USA) supplemented with 10% FCS, 0.29 mg/ml glutamine, 100 units penicillin and 100 μg/ml streptomycin (SigmaAldrich, USA).
P. yoelii Sporozoite Invasion Assay
These plates are incubated at 37° C. with 4% CO2 overnight. Two hours prior to infection, 50 nl of compound dissolved in DMSO (0.1% final DMSO concentration per well) were transferred with a PinTool (GNF Systems) into the assay plates (10 μM final concentration). A 1:3 serial dilution of atovaquone (10 μM at the highest final concentration) and wells treated only with DMSO were used as positive and negative controls, respectively.
Freshly dissected salivary glands from infected mosquitoes were homogenized in a glass tissue grinder, filtered twice through Nylon cell strainers (40 μm pore size, BD Falcon) and counted using a hemocytometer. The assay plate with HepG2-A16-CD81^EGFP cells and compound were then infected with 8×10^3 sporozoites per well and the plates are subjected to a centrifugal force of 650×g to pellet the sporozoites onto the liver cell monolayer. The assay plate is incubated at 37° C. for 2 hours to permit sporozoite invasion, then the media is aspirated from the media plate, and replaced with 50 μl CM (containing a 5× concentration of penicillin/streptomycin; 500 units penicillin and 0.5 mg streptomycin per ml) per well. 50 nl of compound is re-introduced by PinTool and the assay plate incubated for 48 hours at 37° C. before quantification of infected cells by immunofluorescence.
Atovaquone and uninfected wells were used as controls on each plate. Two replicate plates are tested for each assay.
Stained EEFs were then quantified using the Opera Confocal High Content Screening System (PerkinElmer, Waltham, USA). Images were collected using a 20× objective lens (20×/0.45 NA, LWD Plan Fluor, Olympus) at a binning of 2, using a 365 nm Xeon arc lamp illumination to detect the Hoechst-labeled nuclei and 635 nm laser line to excite DyLight649-labeled parasites. The image resolution yielded was approximately 0.66 μm/pixel (˜0.43 μm 2/pixel). All images were analyzed using a custom Acapella™ (PerkinElmer) script parametrized for this assay. In brief, images from fields inside the well were first discarded as out-of focus when the intensity in the nuclear channel was too low. Then, HepG2-A16-CD81^EGFP cells were counted by detecting the nuclei labeled with Hoechst using the nuclei detection libraries available with Acapella™. Parasites were later segmented using the αPyHSP70 immuno-labeling signal, using a custom script library. Once the objects were segmented from the picture, morphological-based (e.g. size, roundness, etc) and intensity-based features were measured for each object detected in the image (i.e. nuclei and parasites). Infection ratio was set as the ratio between parasite number and number of nuclei counted in images considered as “in-focus”.

The mark [2] stands for this setting: read-out: EC50, P. yoelii Sporozoite Invasion Assay.
Where [3] appears, read: 72 h, NF54 or 3D7 infected human erythrocytes, 72 hours, read-out: EC50 (nM), inhibitory efficacy in delaying P. falciparum proliferation in infected human blood cells.
Where [4] appears, read: HepG2-A16-CD81EGFP cells, 48 hours, read-out: EC50 (nM), inhibitory efficacy in delaying the proliferation of P. yoelii sporozoite in infected liver cells.
Setting [5] is: infected human red blood cells, read-out: EC50, P. falciparum Proliferation Assay.

For `CNC(=O)c1ccc(-c2cnc3cnc(C(=O)N(C)c4ccc(Cl)cc4)cn23)cc1` [Compound 228, N-(4-chlorophenyl)-N-methyl-3-[4-(methylcarbamoyl)phenyl]imidazo[1,2-a]pyrazine-6-carboxamide], the EC50 in assay [1] (72 h, read-out: EC50 (nM), inhibitory efficacy in delaying P. falciparum proliferation in infected human blood cells) was 58 nM; with P. yoelii Sporozoite (48 h, read-out: EC50 (nM), inhibitory efficacy in delaying the proliferation of P. yoelii sporozoite in infected liver cells), 32 nM; in the assay on P. yoelii Sporozoite (setting [2]), less than 50 nM.
Regarding `CC(=O)Nc1ccc(-c2cnc3cnc(C(=O)N(C)c4ccc(C#N)cc4)cn23)cn1` [Compound 236, N-(4-cyanophenyl)-3-(6-acetamidopyridin-3-yl)-N-methylimidazo[1,2-a]pyrazine-6-carboxamide], the values for the EC50 (in assay [1] (setting [3]); in the assay with P. yoelii Sporozoite (setting [4])) were 127 nM and 189 nM, respectively.
Take `CN(Cc1cn2c(-c3ccc(C(N)=O)cc3)cnc2cn1)c1ccc(Cl)cc1` [Compound 477, 4-(6-{[(4-chlorophenyl)(methyl)amino]methyl}imidazo[1,2-a]pyrazin-3-yl)benzamide]: the EC50 in assay [1] (setting [3]) is 9 nM; in assay [1] (setting [5]) it was less than 50 nM; with P. yoelii Sporozoite (setting [2]), less than 50 nM; in the assay on P. yoelii Sporozoite (setting [4]) it was 11 nM.
As to `COC(=O)Nc1ccc(-c2cnc3cnc(C(=O)N(C)c4ccc(C#N)cc4)cn23)cc1` [Compound 482, methyl N-(4-{6-[(4-cyanophenyl)(methyl)carbamoyl]imidazo[1,2-a]pyrazin-3-yl}phenyl)carbamate], the EC50 in assay [1] (setting [3]) turned out to be 37 nM; in the assay on P. yoelii Sporozoite (setting [4]) it was 64 nM.
Regarding `CN(C(=O)c1cn2c(-c3ccc(C(N)=O)cc3)cnc2cn1)c1ccc(Cl)cc1` [Compound 486, 3-(4-carbamoylphenyl)-N-(4-chlorophenyl)-N-methylimidazo[1,2-a]pyrazine-6-carboxamide], the EC50 in assay [1] (setting [3]) is 42 nM; in assay [1] (setting [5]) it was less than 50 nM; in the assay on P. yoelii Sporozoite (setting [4]), 120 nM.
`CN(C(=O)c1cn2c(-c3ccc4c(cnn4C)c3)cnc2cn1)c1ccc(C#N)cc1` [Compound 487, N-(4-cyanophenyl)-N-methyl-3-(1-methyl-1H-indazol-5-yl)imidazo[1,2-a]pyrazine-6-carboxamide]: the EC50 turned out to be 96 nM in assay [1] (setting [3]) and 2940 nM with P. yoelii Sporozoite (setting [4]).
`Cc1ccc(N(C)C(=O)c2cn3c(-c4ccc(C(F)(F)F)cc4)cnc3cn2)nc1` [Compound 491, N-methyl-N-(5-methylpyridin-2-yl)-3-[4-(trifluoromethyl)phenyl]imidazo[1,2-a]pyrazine-6-carboxamide]: the values for the EC50 (in assay [1] (setting [3]); in the assay with P. yoelii Sporozoite (setting [4])) were 199 nM and 1110 nM, respectively.
